Experiment: Human HepG2 cell viability assay in 384 well format
Type: toxicity, cell-based
Set-up: dose 125 nL, time 70.5 hour; cytotoxicity at 70.5 h: concentration not given beside the values
Conditions: HepG2 cells, read-out: Inhibition

Structure (SMILES) | cytotoxicity at 70.5 h [%]
O=C(NC1CCCC1)c1ccc(COCC(F)(F)F)o1 | -0.375
CCOc1ccc(NC(=O)N(CCN(C)C)C(C)c2ccncc2)cc1 (stereo not drawn) | 13.6
CCOCCCNC(=O)C(NC(=O)Cc1cccs1)c1ccccc1 (stereo not drawn) | 4.71
O=C(NC1CCCCC1)c1ccc(COCC(F)(F)F)o1 | 19.8
CCC(=O)Nc1ccccc1Sc1nc(Br)nn1C | -8.59
Cn1nc(Br)nc1Sc1ccccc1NC(=O)C1CC1 | 1.89
CCCN1CCc2nc(SCc3ccc(F)cc3)[nH]c(=O)c2C1 | -3.74
CC(=O)Nc1c(C)noc1/C=C\c1ccc(S(=O)(=O)N2CCCC2)cc1 | -3.48
COC(=O)c1ccc(-c2ccc(/C=C3\C(=O)NC(=N)N3C)o2)cc1 | 12.1
COc1ccc(Cl)c(-c2noc3ncn(CCC(=O)O)c(=O)c23)c1 | -20.8
COC(=O)Cn1c(C)cc(=O)n2nc(-c3cccs3)nc12 | 13.3
Cc1cc(Cc2ccc(S(=O)(=O)N3CCCC3)cc2)c(=O)[nH]n1 | -23.4
CCOC(=O)CNC(=O)NCc1cc(C)n(-c2ccccc2OC)c1C | 14.4
COc1ccccc1-n1c(C)cc(CNC(=O)NC(C)C)c1C | -9.03
COc1ccc(Nc2nc(N)c(C(C)=O)s2)cc1Cl | -9.72
COc1cccc(CNc2c(O)c(=O)c2=O)c1 | -20.2
CC(=O)N1N=C(COc2ccc3c(c2)OCO3)OC1c1cccc(Cl)c1 (stereo not drawn) | -2.04
CN1CC=C(c2noc(CCC(=O)N3CCc4ccccc4C3)n2)CC1 | -15
COCCCNC(=O)N1CCN(C(=O)c2nsc3ccccc23)CC1 | -18.1
COCCCNC(=O)N1CCN(C(=O)c2nsc3ccc(C)cc23)CC1 | 20.4

Structure (SMILES) | cytotoxicity at 70.5 h [%]
COc1cnc(CSc2nnc(C)s2)cc1OCC(N)=O | 15.1
CCN(CC)C(=O)CSc1nc2nc(C)ccc2o1 | 11.9
CC(c1ccncc1)N(CCN(C)C)C(=O)Nc1ccc(Cl)c(Cl)c1 (stereo not drawn) | -11.5
COC(=O)c1cccc(C(=O)NCc2ccco2)n1 | -15.9
O=C1COc2ccc(S(=O)(=O)NCCC3=CCCCC3)cc2N1 | 0.831
Nc1nnc(SCc2cc(=O)n3c4c(sc3n2)CCCC4)s1 | -8.05
Cc1n[nH]c2c1C(c1ccc(F)cc1)SCC(=O)N2 (stereo not drawn) | -4.92
O=C(Nc1ccc2c(c1)OCCO2)N1CCCC1c1ccco1 (stereo not drawn) | -10.5
CCc1ccccc1NCc1nc2[nH]c(C)c(C)c(=O)n2n1 | 10.8
Cc1cccc(NC(=O)Nc2c[nH]c(=O)[nH]c2=O)c1C | -1.56
O=c1cc(CSc2nnc[nH]2)nc2sc3c(n12)CCCC3 | -10.9
Cc1nnc(SCc2cc(=O)n3c4c(sc3n2)CCCC4)[nH]1 | -8.32
COCCNC(=O)c1cnc(N(C)C)nc1C | -5.03
CC(=O)c1cccc(NC(=O)c2cnc(N3CCN(C)CC3)nc2C)c1 | 12.8
CCC1CN(CC(=O)NCCN(CC)CC)c2ccccc2S1 (stereo not drawn) | -6.69
O=C(c1cccs1)N1CCN(Cc2cc(=O)c3ccccc3[nH]2)CC1 | -4.26
CCC(CC)C(=O)N1CCN(Cc2cc(=O)c3ccccc3[nH]2)CC1 | 7.24
COc1ccc(C)cc1NC(=O)Nc1cnc(O)nc1O | -6.34
Cc1nn(C)c2c(=O)n(CC(=O)NCc3ccccn3)ccc12 | 0.706
Cc1nn(C)c2c(=O)n(CC(=O)NCCC(C)C)ccc12 | -5.71

Structure (SMILES) | cytotoxicity at 70.5 h [%]
Cc1nn(C)c2c(=O)n(CC(=O)NCc3ccc(N(C)C)cc3)ccc12 | -0.296
COc1ccc(CNC(=O)Cn2ccc3sccc3c2=O)cc1 | 12.8
CC(NC(=O)Cn1ccc2sccc2c1=O)c1ccccc1 (stereo not drawn) | -10.1
O=C(Cn1ccc2sccc2c1=O)NCc1ccc(F)cc1 | -9.4
O=C(Cn1ccc2sccc2c1=O)NCc1ccccc1F | -5.13
CCc1ccc(CNC(=O)Cn2ccc3sccc3c2=O)cc1 | 2.36
COC(=O)CSc1nnc(CCNC(=O)OC(C)(C)C)o1 | -4.92
CCOCCCNC(=O)CCCC(=O)n1nc(C)c2ccccc21 | -3.2
CC1=C(c2ccc(F)cc2)S(=O)(=O)N=C1N1CCc2ccccc21 | -4.74
O=C(NCCCN1CCOCC1)c1ccc(-n2ccc3ccccc32)s1 | -3.96
CCOc1nc2cnccc2n(CC(=O)Nc2ccccc2OC)c1=O | -7.54
O=C(CSC1=NS(=O)(=O)c2cc(F)ccc2N1)c1ccccc1 | -3.16
COc1cccc(NC(=O)c2nc3ccccc3n(C)c2=O)c1 | -6.23
COc1cc(CN2CCCCCC2c2cccs2)cc(OC)c1OC (stereo not drawn) | -9.84
Oc1ccccc1CN1CCCCCC1c1cccs1 (stereo not drawn) | -5.04
COC(=O)CNC(=O)N1CCN(c2nc3ccccc3n2C)CC1 | 26.4
CCS(=O)(=O)N1CCc2ccc(NC(=O)Nc3ccccc3C)cc21 | -11
CCS(=O)(=O)N1CCc2ccc(NC(=O)Nc3ccccc3)cc21 | 9.4

Source: ChEMBL document CHEMBL3507680, “University of Dundee, Gates Library screen for HepG2 cell viability”
